The record followed here is US6022879A, “Bathocuproine treatment of neurologic disease” (priority 1998, dated 2000).

The target of assay [1] is T1, human Cu,Zn superoxide dismutase (SOD), FALS mutant A4V (Homo sapiens, UniProt P00441, A5V).
T1 construct: made in house; host or cells: E. coli BL21(DE3) plysS, pET-3d
Description: Reduction of enzyme-bound copper of SOD by a reductant, monitored spectrally at 680 nm. The format is biochemical. Conditions: Kpi pH 7.4, 37 degrees C. On the procedure: (§1) SODs were present at a subunit concentration of 0.43 mM in 0.5 ml of 0.1 mM Kpi, pH 7.4 at 37 degrees C. Ascorbate (0.5 mM) was added at time zero and reduction was monitored spectrally at 680 nm for 1 hr.
(§2) SODs were present at a subunit concentration of 0.43 mM in 0.5 ml of 0.1 mM Kpi, pH 7.4 at 37 degrees C. H2 O2 (0.4 mM) was added at time zero and reduction was monitored spectrally at 680 nm for 5 minutes.
(§3) For more than two years the notion that FALS SODs could act as peroxidases and generate hydroxyl radical has been a subject of debate. However, H2 O2 can rapidly reduce Cu,Zn SOD and generate superoxide as a byproduct. (It is the addition of a second molecule of H2 O2 to give --OH that is extremely slow and of questionable significance). […] For example, it is possible to assess superoxide production from reduced SOD using the tetranitromethane (TNM) capture assay described by Hodgson and Fridovich (7).

The target of assay [2] is T2, human Cu,Zn superoxide dismutase (SOD), wild type (Homo sapiens, UniProt P00441).
T2 construct: made in house; host or cells: E. coli
The assay is described as above. Conditions: Kpi pH 7.4, 37 degrees C. Type of assay: biochemical. On the procedure:
as §1, §2, §3

The target in assay [3] is T3, human Cu,Zn superoxide dismutase (SOD), FALS mutant D90A (Homo sapiens, UniProt P00441, D91A).
T3 construct: made in house; host or cells: E. coli BL21(DE3) plysS, pET-3d
Described as above. Type of assay: biochemical. The settings on record: Kpi pH 7.4, 37 degrees C. On the procedure: as §1, §2, §3

Assay [4] has as its target T4, human Cu,Zn superoxide dismutase (SOD), FALS mutant G93A (Homo sapiens, UniProt P00441, G94A).
T4 construct: made in house; host or cells: E. coli BL21(DE3) plysS, pET-3d
The assay is described as above. Type of assay: biochemical. Conditions: Kpi pH 7.4, 37 degrees C. On the procedure:
as §1, §2, §3

Assay [5] deals with T5, human Cu,Zn superoxide dismutase (SOD), site-directed mutant D124N (Asp124 to Asn, model zinc-deficient SOD) (Homo sapiens, UniProt P00441, D125N).
T5 construct: made in house; host or cells: E. coli
Briefly: Reduction of enzyme-bound copper of SOD by a reductant, monitored spectrally at 680 nm (stopped-flow for ascorbate). The format is biochemical. On the procedure:
To circumvent this problem, a site-directed human SOD mutant was prepared wherein aspartate124 was changed to asparagine (D124N).
as §1, §2, §3

Assay [6] has as its system G93A transgenic mice (overexpress human G93A ALS SOD mutant). Description: Bathocuproine in ALS SOD transgenic mice: onset and progression of paralysis. Type of assay: in vivo, mouse. Conditions: intraperitoneal in soybean oil, daily 0.51 mg/100 g body weight, from 190 day old G93A mice. On the procedure:
Neither the overall efficiency nor the kinetics of Cu+1 removal was altered by sulfonic acid substituents on the ring(s) of the parent bathocuproine compound. Thus, the sulfonic acid groups serve mainly to increase water solubility and are not fundamental to copper binding activity. The unsubstituted parent compound, bathocuproine, is very lipid soluble and much more likely to cross the blood-brain barrier. In G93A transgenic mice, bathocuproine was dissolved in soybean oil and injected intraperitoneally at a daily dose of 0.51 mg/100 g body weight. Assuming uniform tissue distribution and fluid fraction equal to 0.7 of the mouse's body weight, this dose should give a cellular concentration of 20 µM or roughly a 4-fold molar excess over SOD protein concentration. […] After onset, paralysis progresses rapidly up the trunk and is ultimately fatal within about 14 days. Bathocuproine injections is initiated in 190 day old mice and the mice are observed for onset and progression of paralysis relative to untreated littermates. […] A group of non-transgenic mice are also injected to control for potential toxicities from bathocuproine itself.

Setting [7] is: 0.5 mM ascorbate, SOD subunit 0.43 mM, 1 hr.
[8] abbreviates: 0.4 mM H2O2, SOD subunit 0.43 mM, 5 minutes.

The structures appear in SMILES notation.

T5 sequence (P00441 whole entry D125N): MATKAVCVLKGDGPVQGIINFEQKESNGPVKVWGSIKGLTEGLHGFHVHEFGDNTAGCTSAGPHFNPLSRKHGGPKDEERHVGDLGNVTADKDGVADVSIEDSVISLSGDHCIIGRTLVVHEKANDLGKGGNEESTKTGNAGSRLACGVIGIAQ
T2 sequence (P00441 whole entry): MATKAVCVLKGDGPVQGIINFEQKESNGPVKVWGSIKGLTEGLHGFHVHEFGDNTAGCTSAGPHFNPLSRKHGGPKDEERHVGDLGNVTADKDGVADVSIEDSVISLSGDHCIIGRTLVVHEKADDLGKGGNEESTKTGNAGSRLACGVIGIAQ
T3 sequence (P00441 whole entry D91A): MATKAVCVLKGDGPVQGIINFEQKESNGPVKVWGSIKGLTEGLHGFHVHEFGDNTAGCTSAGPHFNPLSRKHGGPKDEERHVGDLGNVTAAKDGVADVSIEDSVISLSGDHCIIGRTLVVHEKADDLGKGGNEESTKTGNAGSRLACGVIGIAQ
T4 sequence (P00441 whole entry G94A): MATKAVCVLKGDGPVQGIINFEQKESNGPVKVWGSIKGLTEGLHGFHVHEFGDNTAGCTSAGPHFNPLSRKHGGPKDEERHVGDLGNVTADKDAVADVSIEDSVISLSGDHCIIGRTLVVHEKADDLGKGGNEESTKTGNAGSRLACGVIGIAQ
T1 sequence (P00441 whole entry A5V): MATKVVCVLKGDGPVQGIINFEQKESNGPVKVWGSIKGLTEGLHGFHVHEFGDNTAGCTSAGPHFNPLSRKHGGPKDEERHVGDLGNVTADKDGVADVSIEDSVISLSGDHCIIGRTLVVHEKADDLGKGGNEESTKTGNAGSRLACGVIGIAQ

For `O=C1O[C@H]([C@@H](O)CO)C(O)=C1O` [ascorbate, ascorbic acid], the “t1/2 for reduction of SOD copper by ascorbate” value is 1550 s in assay [1] (setting [7]) and 8.9 s in assay [5] (0.5 mM ascorbate, SOD subunit 0.43 mM, Kpi pH 7.4, 37 degrees C, stopped-flow spectroscopy). For the same molecule, the “t1/2 for reduction by ascorbate” value in assay [2] (0.5 mM ascorbate, SOD subunit 0.43 mM) came to 1700 s. Moreover, the entries for the “t1/2 for reduction of ascorbate” value in assay [3] (setting [7]) and in assay [4] (setting [7]) were 1770 s and 1240 s, respectively. Besides, in assay [5] (0.5 mM ascorbate, D124N versus wild-type), the “rate of ascorbate-mediated reduction relative to wild-type SOD” value is approximately 200 fold.
With `OO` [H2 O2, hydrogen peroxide], the “t1/2 for reduction by H2 O2” value in assay [1] (setting [8]) was 21.2 s; in assay [2] (setting [8]) it was 30.5 s; in assay [3] (setting [8]), 30.9 s; in assay [4] (setting [8]) it was 24.2 s; in assay [5] (0.4 mM H2O2, SOD subunit 0.43 mM, Kpi pH 7.4, 37 degrees C, 680 nm, 5 minutes), 26.7 s.
Take `Cc1cc(-c2ccccc2)c2ccc3c(-c4ccccc4)cc(C)nc3c2n1` [bathocuproine]: the “onset and progression of paralysis relative to untreated littermates” value in assay [6] was “delay of onset or slowing of progression is shown”.
